One data set concerns patients with CHF. The settings on record: cited from earlier work.
For data set [1] the following is noted: cited from earlier work.
For data set [2] the following is noted: long-term administration; cited from earlier work.
A further data set relates to asthmatic mice. Description: Airway resistance (Raw) response to methacholine in murine model of asthma. The following applies: for airway hyperresponsiveness / airway responsiveness to methacholine provocation (airway resistance, Raw): asthmatic mice; for airway hyperresponsiveness: methacholine challenge, chronic treatment 7 days, 20 mg/kg (metoprolol 3× daily s.c.; timolol in chow). The class given is in vivo, Balb/cJ mice. The procedure: Balb/cJ mice aged 6 weeks (Jackson Animal Laboratory, Bar Harbor, Maine) were housed under specific pathogen-free conditions and fed a chicken ovalbumin-free diet. The Animal Research Ethics Boards of both the University of Houston and the Baylor College of Medicine approved all experiments reported here. […] Mice were sensitized with subcutaneous injection of 25 μg of ovalbumin adsorbed to aluminum hydroxide on protocol days 2, 9, and 16. Subsequently, mice were given 50 μL of saline solution containing 25 μg of ovalbumin intranasally, on a daily basis, from protocol days 23 through 27. A group of ovalbumin-sensitized saline-challenged mice serves as controls for systemic sensitization and respiratory challenges with ovalbumin. Prior to intranasal administrations, mice were sedated with halothane vapor.
To examine the effects of duration of β-adrenergic ligand therapy on the phenotype of the murine model of asthma, the experimental drugs were administered either acutely or chronically to different groups of asthmatic mice.
Asthmatic mice on acute therapy were given a single intravenous bolus infusion of either β-adrenergic drug or normal saline on protocol day 28, 15 minutes before airway responsiveness to methacholine was determined. […] […] […] These concentrations were chosen based on those producing therapeutic effects in mice in previously published studies. The non-asthmatic mice were fed normal chow.
On protocol day 28, mice were anesthetized, tracheotomized, and connected to a computer-controlled small animal ventilator (Flexivent, Scientific Respiratory Equipment, Inc., Montreal, Canada). Airway resistance (Raw) was measured using the forced oscillation technique. The cellular composition of bronchoalveolar lavage fluid (BALF) was also determined.
To induce airway constriction, a solution containing 150 μg/mL of acetyl-α-methylcholine chloride (methacholine) (Sigma Chemical, St. Louis, Mo.) was infused intravenously at constant rates using a syringe infusion pump (Raze Scientific Instruments, Stanford, Conn.). […] Each methacholine dose was administered for 3 to 5 minutes, during which data were sampled at 1-minute intervals and then averaged.
The complex input impedance of the respiratory system was computed and the value of the real part of respiratory system impedance at 19.75 Hz was taken to reflect the magnitude of airway resistance (Raw). To examine the degree of airway responsiveness of each animal, the values for Raw as a function of methacholine doses were plotted. The largest value for Raw achieved in response to methacholine stimulation was referred to as Rawpeak. For mice that achieved a plateau in the methacholine dose-Raw response curve, the ED50 was calculated by linear interpolation using the GraphPad Prism4 (GraphPad Software, Inc.). […] The Bonferroni test was used to examine the statistical differences between experimental groups. The effects of acute drug treatments on baseline respiratory system mechanics were assessed using a two-tailed paired t-test. A value of P<0.05 was considered significant.
For these experiments, salbutamol was used for chronic administration at 0.5 mg/kg/day with a minipump and for acute administration at 0.15 mg/kg by i.v. bolus 15 minutes prior to challenge. Alprenolol was used at a high dose of 7200 ppm in chow or at a low dose of 720 ppm in chow. Carvedilol was used at a high dose of 2400 ppm in chow or at a low dose of 720 ppm in chow.
The airway resistance (Raw) is plotted as cm H2O ml^−1 s.

Data set [3] has as its system sensitized and allergen-challenged mice. Description: Aminophylline on acute airway effects of nadolol. The class given is in vivo. The following applies: 100 mg/kg i.p. during methacholine infusion; untreated and nadolol-treated mice. The procedure:
Mice were sensitized to the allergen ovalbumin as described in Example 1.
At time point 1 (time=−10 min) baseline airway resistance of the mice was determined. At time point 2 (time=−5 min) methacholine was infused into mice to reach their EC70.

For the next data set, the target named is β2-adrenergic receptor (Mus musculus, UniProt P18762). The class given is in vivo, mice. The following applies: for level of the β2-adrenergic receptor: chronic treatment; for Bmax (receptor density) / βmax (receptor density): lung membranes, mean±SEM, n=3-5; for Bmax (receptor density): drug treatment 15 Minutes; for βmax (receptor density): drug treatment 28 Days. The procedure:
β2-adrenergic receptor numbers were measured in asthmatic mice as follows. […] Mice were sacrificed and lung membranes were isolated as follows. Frozen lung tissue was homogenized in an ice-cold buffer containing 0.32 M sucrose and 25 mM Tris (pH 7.4) using a polytron (Pro 200, Pro Scientific, Inc.). The homogenate was centrifuged at 1000×g for 10 min at 4° C. The resulting supernatant was centrifuged at 40,000×g for 20 min at 4° C. The pellet was suspended in an ice-cold 25 mM Tris-HCl buffer (pH 7.4) and centrifuged at 40,000'g for 20 min at 4° C. The final pellet was suspended in 200 μL of 25 mM Tris-HCl (pH 7.4); membrane protein concentration was determined by BCA protein assay kit. […] The incubation was done at 37° C. for 2 h and terminated by rapid vacuum filtration through glass fiber filters. The filters were washed three times with 250 μL of cold wash buffer (25 mM Tris-HCl, pH 7.4) and the radioactivity determined in a counter. […] Receptor densities are expressed as femtomoles of sites per milligram of protein. Bmax is determined by nonlinear regression of the saturation binding curves.

The test system of data set [4] is tracheas from asthmatic mice. The settings on record: asthmatic mice chronically treated; cited from earlier work.
The conditions of data set [5]: cited from earlier work. This is another data set of the same source.
For data set [6] the following is noted: healthy volunteers; after 9 d of treatment versus first treatment day; cited from earlier work.
The conditions of data set [7]: in humans, in the presence of nadolol; cited from earlier work.
For another data set, the target named is β3 (Homo sapiens, UniProt P13945). The following applies: read-out: K1 values for β3; cited from earlier work.
The conditions of data set [8]: in vivo; cited from earlier work.
Another data set deals with β2. The settings on record: read-out: K1 values for β2 (first value); cited from earlier work.
Data set [9] concerns antigen-induced bronchoconstriction. The following applies: acute administration; cited from earlier work.
The subject of the next data set is β-adrenergic receptor. The following applies: U.S. Pat. No. 6,284,800; cited from earlier work.
[10] abbreviates: acute: single intravenous bolus 15 minutes before methacholine.
Setting [11] is: chronic administration, 28 days (in chow; salbutamol by osmotic minipump).

One may read the half-life as the time needed for the level to fall by half in the phase considered.

“Also recorded” adds a separate entry of the source. Like-named read-outs stand apart in the source and are kept apart here.

Sequence of β2-adrenergic receptor (P18762 whole entry): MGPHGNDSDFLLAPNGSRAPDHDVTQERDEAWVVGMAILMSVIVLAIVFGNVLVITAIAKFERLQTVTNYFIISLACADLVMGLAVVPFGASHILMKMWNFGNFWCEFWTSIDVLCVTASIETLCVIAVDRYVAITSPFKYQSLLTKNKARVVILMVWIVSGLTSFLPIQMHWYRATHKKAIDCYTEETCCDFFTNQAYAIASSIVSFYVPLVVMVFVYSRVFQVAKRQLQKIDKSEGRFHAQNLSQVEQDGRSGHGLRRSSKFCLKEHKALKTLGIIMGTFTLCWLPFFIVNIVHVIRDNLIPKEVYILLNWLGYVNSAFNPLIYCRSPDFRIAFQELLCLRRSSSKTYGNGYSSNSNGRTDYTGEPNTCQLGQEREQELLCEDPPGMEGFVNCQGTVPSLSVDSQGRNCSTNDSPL
Sequence of β3 (P13945 whole entry): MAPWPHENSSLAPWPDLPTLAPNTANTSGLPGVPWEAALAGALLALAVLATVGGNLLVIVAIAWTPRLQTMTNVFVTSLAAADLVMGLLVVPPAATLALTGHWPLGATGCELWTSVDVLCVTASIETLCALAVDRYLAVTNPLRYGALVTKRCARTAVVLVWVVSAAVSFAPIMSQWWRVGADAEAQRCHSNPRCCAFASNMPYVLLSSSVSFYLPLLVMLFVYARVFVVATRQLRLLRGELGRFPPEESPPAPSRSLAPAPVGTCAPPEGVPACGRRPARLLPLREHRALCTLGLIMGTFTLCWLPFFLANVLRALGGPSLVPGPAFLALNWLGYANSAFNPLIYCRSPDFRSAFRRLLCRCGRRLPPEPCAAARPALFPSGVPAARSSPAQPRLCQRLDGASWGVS

With `CC(C)(Cc1c[nH]c2ccccc12)NCC(O)COc1ccccc1C#N` (stereo not shown) [Bucindolol, bucindolol], the “clinical outcome (mortality, benefit over placebo)” value in the data set on patients with CHF is given as “failed to demonstrate any benefit over placebo”.
In the case of `OCc1cc(C(O)CNCCCCCCOCCCCc2ccccc2)ccc1O` (stereo not shown) [salmeterol], the “time in which the majority of a dose is eliminated, predominantly in the feces” value in data set [1] (in vivo) was at most 72 h. Moreover, the “trial outcome (death rates)” value in data set [2] was “stopped due to increased death rates”.
Consider `COCCc1ccc(OCC(O)CNC(C)C)cc1` (stereo not shown) [metoprolol], for which, in the data set on asthmatic mice, the airway hyperresponsiveness result is “effective in reducing airway hyperresponsiveness”. Also, the “clinical outcome (mortality, benefit over placebo)” value in the data set with patients with CHF is “significant mortality reduction”.
For `Cn1c(=O)c2[nH]cnc2n(C)c1=O` [aminophylline], the “airway resistance after administration” value in data set [3] is “significant and sustained drop in airway resistance”.
Take `C=CCc1ccccc1OCC(O)CNC(C)C` (stereo not shown) [Alprenolol, alprenolol]: the “Decreased Raw” value with asthmatic mice (15 minutes of administration) is “yes”; in the data set with asthmatic mice (2 days of administration), “no”; with asthmatic mice (28 days of administration), “no”. Moreover, the “airway responsiveness to methacholine provocation (airway resistance, Raw)” value is on record as “airway responsiveness was diminished” in the data set on asthmatic mice (setting [10]) and “does not reduce airway hyperresponsiveness; also recorded: provides no benefit upon chronic administration” in the data set on asthmatic mice (setting [11]). In addition, the “Increased β2AR density” value on β2-adrenergic receptor (15 minutes of administration) is “yes”; at β2-adrenergic receptor (2 days of administration), “no”; on β2-adrenergic receptor (28 days of administration) it was “no”. Moreover, the “level of the β2-adrenergic receptor” value on β2-adrenergic receptor is recorded as “slight decrease”. In addition, the “Bmax (receptor density)” value on β2-adrenergic receptor is reported as 299.5 ± 12.19 femtomoles of sites per milligram of protein. Besides, the “βmax (receptor density)” value on β2-adrenergic receptor is 179.2 ± 53.05 femtomoles of sites per milligram of protein. In data set [4], the “rank of effectiveness on contraction of excised tracheas in response to methacholine” value was “most effective”.
On to `C[C@@H]1C[C@H]2[C@@H]3C[C@H](F)C4=CC(=O)C=C[C@]4(C)[C@@]3(F)[C@@H](O)C[C@]2(C)[C@@]1(O)C(=O)SCF` [fluticasone], for which the “first-pass hepatic metabolism of the systemically absorbed drug” value in data set [5] (in vivo) is “almost complete”.
With `CC(C)(C)NCC(O)c1ccc(O)c(CO)c1` (stereo not shown) [Salbutamol, salbutamol], the entries for the “Decreased Raw” value in the data set on asthmatic mice (15 minutes of administration), with asthmatic mice (2 days of administration) and in the data set with asthmatic mice (28 days of administration) were “yes”, “no” and “no”, respectively. In addition, the results for the “airway responsiveness to methacholine provocation (airway resistance, Raw)” value in the data set on asthmatic mice (setting [10]) and with asthmatic mice (setting [11]) were “reduced the level of airway responsiveness to methacholine provocation” and “no protection was observed”, respectively. In [1] (10 patients with cystic fibrosis versus healthy adults), the “bioavailability of inhaled drug” value is given as “greater”. In addition, the “Increased β2AR density” value on β2-adrenergic receptor (15 minutes of administration) is given as “yes”; on β2-adrenergic receptor (2 days of administration) it was “no”; at β2-adrenergic receptor (28 days of administration) it was “no”. For the same compound, the “level of the β2-adrenergic receptor” value on β2-adrenergic receptor is listed as “slight decrease”. The “Bmax (receptor density)” value at β2-adrenergic receptor is 256.5 ± 29.24 femtomoles of sites per milligram of protein. For the same compound, the “βmax (receptor density)” value on β2-adrenergic receptor was 97.0 ± 23.02 femtomoles of sites per milligram of protein.
Take `O=S(=O)(Nc1ccc(CCNC[C@H](O)c2cccnc2)cc1)c1ccc(-c2nc(-c3ccc(C(F)(F)F)cc3)cs2)cc1` [L-796568]: the “acute increases in plasma fatty acid concentrations” value in data set [6] is “completely absent after 9 d of treatment”.
As to `Cc1ccc(OCC(O)C(C)NC(C)C)c2c1CCC2` (stereo not shown) [ICI-118,551], the “rank of effectiveness on contraction of excised tracheas in response to methacholine” value in [4] is given as “then ICI-118,551”.
Turning to `CCCC1O[C@@H]2C[C@H]3[C@@H]4CCC5=CC(=O)C=C[C@]5(C)[C@H]4[C@@H](O)C[C@]3(C)[C@]2(C(=O)CO)O1` (stereo partly shown) [budesonide], the “plasma clearance of the 2 enantiomers per kilogram of bodyweight, higher in children than adults” value in [5] (6 children with asthma versus 11 healthy adults) is given as “about 50%”. Also, in [5] (in vivo), the “plasma clearance relative to the average clearance of prednisolone” value is reported as “about 10 fold” and the “systemic availability of the swallowed fraction” value was 10.7±4.3%.
Turning to `CN[C@@H](C)[C@H](O)c1ccccc1` [ephedrine], the “level of thermogenesis relative to the ephedrine-untreated level” value in data set [7] is recorded as 40%.
For the compound `Cc1ccc(Cl)c(OCC(O)CNC(C)(C)C)c1` (stereo not shown) [bupranolol], the values for the Ki on β3 and on β2 were 50 nM and 1.7 nM, respectively. In addition, the half-life in [8] is 1.5 h.
As for `CC(C)NC[C@H](O)COc1cccc2ccccc12` [L-form of propranolol, propranolol], in data set [9], the specific lung resistance result was “increased specific lung resistance”.
Take `CC(C)(C)NCC(O)c1cc(O)cc(O)c1` (stereo not shown) [terbutaline]: the “increase of bioavailability by the oral component” value in [1] (from an MDI) was 6.7%. Besides, the “absorption through the lung” value in [1] (healthy smokers versus healthy nonsmokers) was “more rapidly”.
As for `CC(C)NC[C@@H](O)COc1cccc2ccccc12` [D-propranolol], the “activity with respect to β-adrenergic receptors” value in the data set with β-adrenergic receptor was “inactive”. Further, in data set [9], the “antigen-induced bronchoconstriction and airway hyperresponsiveness” value is “beneficial in inhibiting antigen-induced bronchoconstriction and reducing airway hyperresponsiveness”.
For `CC(C)(C)NC[C@H](O)COc1nsnc1N1CCOCC1` [timolol], in the data set with asthmatic mice, the airway hyperresponsiveness entry is listed as “effective in reducing airway hyperresponsiveness”.

Source of the values: patent US20070276024A1, “Methods for Treating Diseases and Conditions with Inverse Agonists and for Screening for Agents Acting as Inverse Agonists” (Inverseon , Inc., priority 2003, published 2007).
